ChEMBL document CHEMBL4017490, “Design, Synthesis, and Pharmacological Evaluation of Novel Multisubstituted Pyridin-3-amine Derivatives as Multitargeted Protein Kinase Inhibitors for the Treatment of Non-Small Cell Lung Cancer” (J Med Chem, 2017)

Legend:
[1] = biological target: Fibroblast growth factor receptor 1 (Homo sapiens, UniProt P11362); test: Inhibition of recombinant human FGFR1 using poly (Glu,Tyr) 4:1 as substrate after 60 mins by ELISA
[2] = biological target: Fibroblast growth factor receptor 3 (Homo sapiens, UniProt P22607); test: Inhibition of recombinant human FGFR3 using poly (Glu,Tyr) 4:1 as substrate after 60 mins by ELISA
Chain of Fibroblast growth factor receptor 3 (P22607 whole entry): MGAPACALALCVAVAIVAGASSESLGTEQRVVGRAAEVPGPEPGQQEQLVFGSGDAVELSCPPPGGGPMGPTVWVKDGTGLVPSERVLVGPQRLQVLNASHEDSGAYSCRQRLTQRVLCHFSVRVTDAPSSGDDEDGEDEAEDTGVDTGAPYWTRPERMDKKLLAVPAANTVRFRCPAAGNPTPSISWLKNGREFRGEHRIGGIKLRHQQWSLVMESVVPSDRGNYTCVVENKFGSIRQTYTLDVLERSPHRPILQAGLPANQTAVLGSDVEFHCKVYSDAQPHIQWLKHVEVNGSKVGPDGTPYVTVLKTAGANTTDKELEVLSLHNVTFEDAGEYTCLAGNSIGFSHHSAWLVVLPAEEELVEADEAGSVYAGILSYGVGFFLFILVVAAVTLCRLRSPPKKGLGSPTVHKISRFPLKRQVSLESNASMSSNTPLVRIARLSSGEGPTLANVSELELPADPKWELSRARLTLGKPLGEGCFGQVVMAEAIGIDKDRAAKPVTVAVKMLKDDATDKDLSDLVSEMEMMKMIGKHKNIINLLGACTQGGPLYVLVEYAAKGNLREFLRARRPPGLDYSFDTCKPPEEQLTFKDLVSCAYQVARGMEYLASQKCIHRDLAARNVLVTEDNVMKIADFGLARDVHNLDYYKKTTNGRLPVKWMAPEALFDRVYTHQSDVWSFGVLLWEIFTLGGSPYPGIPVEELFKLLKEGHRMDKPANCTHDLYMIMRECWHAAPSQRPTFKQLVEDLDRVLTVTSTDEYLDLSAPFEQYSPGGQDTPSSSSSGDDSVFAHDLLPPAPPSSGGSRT

[3] = biological target: Fibroblast growth factor receptor 2 (Homo sapiens, UniProt P21802)
Chain of Fibroblast growth factor receptor 2 (P21802 whole entry): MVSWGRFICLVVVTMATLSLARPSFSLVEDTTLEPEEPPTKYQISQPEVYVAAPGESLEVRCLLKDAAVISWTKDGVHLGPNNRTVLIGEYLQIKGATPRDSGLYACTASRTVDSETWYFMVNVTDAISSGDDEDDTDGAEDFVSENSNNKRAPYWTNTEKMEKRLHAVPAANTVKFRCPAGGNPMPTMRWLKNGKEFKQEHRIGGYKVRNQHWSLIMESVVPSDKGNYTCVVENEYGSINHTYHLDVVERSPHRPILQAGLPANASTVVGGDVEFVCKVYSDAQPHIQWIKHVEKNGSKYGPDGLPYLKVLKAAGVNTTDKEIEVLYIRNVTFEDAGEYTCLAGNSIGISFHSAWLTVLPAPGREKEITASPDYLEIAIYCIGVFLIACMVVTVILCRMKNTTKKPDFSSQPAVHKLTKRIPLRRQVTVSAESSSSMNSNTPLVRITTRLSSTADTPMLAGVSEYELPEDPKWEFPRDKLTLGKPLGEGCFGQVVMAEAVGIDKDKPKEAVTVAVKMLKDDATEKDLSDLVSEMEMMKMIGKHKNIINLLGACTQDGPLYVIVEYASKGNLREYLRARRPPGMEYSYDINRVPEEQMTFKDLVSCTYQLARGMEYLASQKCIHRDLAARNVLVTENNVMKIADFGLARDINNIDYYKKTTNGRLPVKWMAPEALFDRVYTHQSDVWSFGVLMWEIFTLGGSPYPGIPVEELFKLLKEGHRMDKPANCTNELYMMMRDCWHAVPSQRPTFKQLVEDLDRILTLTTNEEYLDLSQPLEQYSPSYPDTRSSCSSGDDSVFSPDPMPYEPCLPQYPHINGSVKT
Description: Inhibition of recombinant human FGFR2 using poly (Glu,Tyr) 4:1 as substrate after 60 mins by ELISA

[4] = Inhibition of FGFR3 mutant in human UM-UC-14 cells assessed as inhibition of cell proliferation after 72 hrs by cell counting kit-8 assay; assay type: cell-based; details: UMUC14, 72 h

Chain of Fibroblast growth factor receptor 1 (P11362 whole entry): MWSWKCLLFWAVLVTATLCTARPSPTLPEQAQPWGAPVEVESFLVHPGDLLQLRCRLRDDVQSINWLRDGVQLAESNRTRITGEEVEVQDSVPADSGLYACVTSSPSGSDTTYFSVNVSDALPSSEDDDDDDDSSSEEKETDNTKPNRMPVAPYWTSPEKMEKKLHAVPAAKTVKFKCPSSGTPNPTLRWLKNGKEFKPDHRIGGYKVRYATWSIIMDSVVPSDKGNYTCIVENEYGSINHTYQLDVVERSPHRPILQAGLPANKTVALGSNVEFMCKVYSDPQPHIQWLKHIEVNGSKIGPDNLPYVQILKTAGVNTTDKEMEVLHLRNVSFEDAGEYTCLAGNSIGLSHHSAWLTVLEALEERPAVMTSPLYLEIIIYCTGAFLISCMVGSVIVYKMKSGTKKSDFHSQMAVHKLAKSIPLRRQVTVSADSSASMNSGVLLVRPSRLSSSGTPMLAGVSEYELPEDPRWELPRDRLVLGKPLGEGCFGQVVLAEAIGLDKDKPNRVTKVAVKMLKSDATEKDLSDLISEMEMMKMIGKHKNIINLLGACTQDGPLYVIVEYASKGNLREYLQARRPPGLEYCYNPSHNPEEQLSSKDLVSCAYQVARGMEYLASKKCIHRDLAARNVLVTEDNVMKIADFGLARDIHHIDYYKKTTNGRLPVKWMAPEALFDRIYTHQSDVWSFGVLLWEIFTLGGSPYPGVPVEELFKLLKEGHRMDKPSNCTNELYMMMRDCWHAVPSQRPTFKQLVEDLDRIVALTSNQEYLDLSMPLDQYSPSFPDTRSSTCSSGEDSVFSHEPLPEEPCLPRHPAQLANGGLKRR

| Compound | IC50 [1] | IC50 [2] | IC50 [3] | IC50 [4] |
| --- | --- | --- | --- | --- |
| O=C1Cc2cc(-c3cc(N[C@@H](CO)c4ccccc4)cnc3-c3cc(Cl)ccc3O)ccc2N1 | 91.5 nM | 591 nM | 154 nM |  |
| Cc1n[nH]c2ccc(-c3cc(N[C@@H](CO)c4ccccc4)cnc3-c3cccc4cccnc34)cc12 | > 1000 nM | > 1000 nM | > 1000 nM |  |
| Cc1n[nH]c2ccc(-c3cc(N[C@@H](CO)c4ccccc4)cnc3-c3ccccc3)cc12 | 128 nM | 280 nM | 26.3 nM |  |
| Cc1n[nH]c2ccc(-c3cc(N[C@@H](CO)c4ccccc4)cnc3-c3ccccc3C(F)(F)F)cc12 | > 1000 nM | > 1000 nM | > 1000 nM |  |
| Cc1n[nH]c2ccc(-c3cc(N[C@@H](CO)c4ccccc4)cnc3-c3ccsc3)cc12 | 327 nM | 970 nM | 56.9 nM |  |
| Cc1n[nH]c2ccc(-c3cc(N[C@@H](CO)c4ccccc4)cnc3-c3ccccc3CO)cc12 | 167 nM | 251 nM | 50.5 nM |  |
| Cc1n[nH]c2ccc(-c3cc(N[C@@H](CO)c4ccccc4)cnc3-c3ccccc3F)cc12 | 437 nM | 431 nM | 44.6 nM |  |
| CC(=O)Nc1ccccc1-c1ncc(N[C@@H](CO)c2ccccc2)cc1-c1ccc2[nH]nc(C)c2c1 | 418 nM | 3650 nM | 250 nM |  |
| OC[C@H](Nc1cnc(-c2cc(Cl)ccc2O)c(-c2ccc3[nH]ccc3c2)c1)c1ccccc1 | > 1000 nM | > 1000 nM | > 1000 nM |  |
| Cc1n[nH]c2ccc(-c3cc(NCCCO)cnc3-c3cc(F)ccc3O)cc12 | > 1000 nM | > 1000 nM | > 1000 nM |  |
| COc1ccccc1-c1ncc(N[C@@H](CO)c2ccccc2)cc1-c1ccc2[nH]nc(C)c2c1 | > 1000 nM | > 1000 nM | 100 to 1000 nM |  |
| CC(=O)Nc1ccc(-c2cc(N[C@@H](CO)c3ccccc3)cnc2-c2cc(Cl)ccc2O)cc1 | > 1000 nM | > 1000 nM | > 1000 nM |  |
| Cc1ccc(O)c(-c2ncc(N[C@@H](CO)c3ccccc3)cc2-c2ccc3[nH]nc(C)c3c2)c1 | 32.3 nM | 22.8 nM | 16.1 nM |  |
| Cc1n[nH]c2ccc(-c3cc(N[C@@H](CO)c4ccccc4)cnc3-c3cc(F)c(F)cc3O)cc12 | 10.6 nM | 27.6 nM | 2.8 nM |  |
| Cc1n[nH]c2ccc(-c3cc(NC[C@H](O)c4ccccc4)cnc3-c3cc(Cl)ccc3O)cc12 | 168 nM | 401 nM | 71.9 nM |  |
| COc1cc(CCc2cc(NC(=O)c3ccc(N4C[C@@H](C)N[C@@H](C)C4)cc3)n[nH]2)cc(OC)c1 [FEXAGRATINIB] |  |  |  | 27.1 nM |
| Cc1n[nH]c2ccc(-c3cc(N[C@@H](CO)c4ccccc4)cnc3-c3cccnc3)cc12 | > 1000 nM | > 1000 nM | > 1000 nM |  |
| Cc1n[nH]c2ncc(-c3cc(N[C@@H](CO)c4ccccc4)cnc3-c3cc(Cl)ccc3O)cc12 | 24.9 nM | 93.9 nM | 6.6 nM |  |
| Cc1n[nH]c2ccc(-c3cc(N[C@@H](CO)c4ccccc4)cnc3-c3cccc4cc[nH]c34)cc12 | 456 nM | 561 nM | 56.4 nM |  |
| Cc1n[nH]c2ccc(-c3cc(N[C@H](CO)c4ccccc4)cnc3-c3cc(Cl)ccc3O)cc12 | > 1000 nM | > 1000 nM | > 1000 nM |  |
| Cc1n[nH]c2ccc(-c3cc(N[C@@H](CO)c4ccccc4)cnc3-c3cc(C(C)C)ccc3O)cc12 | > 1000 nM | > 1000 nM | > 1000 nM |  |
| Cc1n[nH]c2ccc(-c3cc(NCCO)cnc3-c3cc(F)ccc3O)cc12 | > 1000 nM | > 1000 nM | > 1000 nM |  |

Now from value to molecule, other results behind:

| IC50 [1] | IC50 [2] | IC50 [3] | Compound | IC50 [4] |
| --- | --- | --- | --- | --- |
| 27.9 nM | 35.3 nM | 2.5 nM | Cc1n[nH]c2ccc(-c3cc(N[C@@H](CO)c4ccccc4)cnc3-c3cccc(F)c3O)cc12 |  |
| > 1000 nM | > 1000 nM | > 1000 nM | Cc1n[nH]c2ccc(-c3cc(N[C@@H](C)c4ccccc4)cnc3-c3cc(Cl)ccc3O)cc12 |  |
| 66.5 nM | 434 nM | 21.4 nM | Cc1n[nH]c2ccc(-c3cc(N[C@@H](CO)c4ccccc4)cnc3-c3cccc(O)c3)cc12 |  |
| 14.9 nM | 8 nM | 3 nM | Cc1n[nH]c2ccc(-c3cc(N[C@@H](CO)c4ccccc4)cnc3-c3ccccc3O)cc12 |  |
| > 1000 nM | > 1000 nM | 100 to 1000 nM | Cc1n[nH]c2ccc(-c3cc(N[C@@H](CO)c4ccccc4)cnc3-c3cccs3)cc12 |  |
| > 1000 nM | > 1000 nM | 100 to 1000 nM | Cc1n[nH]c2ccc(-c3cc(N[C@@H](CO)c4ccccc4)cnc3-c3ccco3)cc12 |  |
| 48.8 nM | 388 nM | 72.9 nM | Cc1n[nH]c2ccc(-c3cc(N[C@@H](CO)c4ccccc4)cnc3-c3ccccc3C(N)=O)cc12 |  |
| 63.5 nM | 58.4 nM | 3.4 nM | Cc1n[nH]c2ccc(-c3cc(N[C@@H](CO)c4ccccc4)cnc3-c3cc(F)cc(F)c3O)cc12 |  |
| 3800 nM | > 1000 nM | > 1000 nM | Cc1n[nH]c2ccc(-c3cc(N[C@@H](CO)c4ccccc4)cnc3-c3ccoc3)cc12 |  |
